In PubChem BioAssay (NCI):
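Protocol summary: plate cells (96-well), add compound at 5 concentrations, incubate 48 h, interpolate endpoints linearly. GI50: concentration for 50% inhibition of growth. TGI: total growth inhibition.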

Assays:
Test in all cases: NCI tumour cell line growth inhibition, 48 h
[1] = tested on: DLD-1 colon
[2] = tested on: DMS 114 small cell lung
[3] = tested on: DMS 273 small cell lung
[4] = tested on: LXFL 529 NSCLC
[5] = tested on: M19-MEL melanoma
[6] = tested on: MDA-N
[7] = tested on: XF 498 CNS
[8] = tested on: RXF-631 renal
[9] = tested on: SNB-78 CNS
[10] = tested on: SN12K1 renal

C=C(C)[C@@H]1CC[C@]2(C)CC[C@]3(C)[C@H](CC[C@@H]4[C@@]5(C)CC[C@H](O)C(C)(C)[C@@H]5CC[C@]43C)[C@@H]12
TGI [1]: > 100 µM | TGI [2]: > 100 µM | TGI [3]: > 100 µM | TGI [4]: > 100 µM | TGI [5]: > 100 µM | TGI [6]: > 100 µM | TGI [7]: > 100 µM

C=CCNC(=O)N(CCCCC(NC(C)=O)C(=O)NCc1ccccc1)Cc1ccccc1 (configuration not stated)
TGI [3]: > 100 µM | TGI [4]: > 100 µM | TGI [5]: > 100 µM | TGI [8]: > 100 µM | TGI [7]: > 100 µM

O.O.[NH-]C1(C(=O)O)CCCC1.[NH-]C1(C(=O)O)CCCC1.[Ni+2]
GI50 [6]: > 100 µM | TGI [6]: > 100 µM

CN(O)C(=O)SCC(NC(=O)CCC(N)C(=O)O)C(=O)NCC(=O)O (configuration not stated)
GI50 [1]: > 2000 µM | TGI [1]: > 2000 µM | GI50 [2]: > 2000 µM | TGI [2]: > 2000 µM | GI50 [3]: > 2000 µM | TGI [3]: > 2000 µM | GI50 [4]: > 2000 µM | TGI [4]: > 2000 µM | GI50 [5]: > 2000 µM | TGI [5]: > 2000 µM | TGI [9]: > 2 µM

CCOc1cccc(/C=N/N=C2\C(=O)Nc3c(Cl)cc(Cl)cc32)c1O
TGI [6]: > 100 µM

O=C(Nc1ccc([As](=O)(O)O)cc1)Nc1cccc(Cl)c1Cl
TGI [6]: > 100 µM

COc1cc(Br)c(C=Nc2cccc3cc(OC)c(OC)cc23)cc1OC
TGI [1]: > 100 µM | TGI [2]: 50.4 µM | TGI [3]: > 100 µM | TGI [4]: > 100 µM | TGI [5]: > 100 µM | TGI [8]: > 100 µM | TGI [9]: > 100 µM

Cc1nnn[n-]1.N.N.N.N.N.[Cl-].[Co+3]
GI50 [1]: > 100 µM | TGI [1]: > 100 µM | GI50 [3]: > 100 µM | TGI [3]: > 100 µM | GI50 [4]: > 100 µM | TGI [4]: > 100 µM

CC(C)Cn1cnc2c(SCc3ccc(Cl)cc3Cl)nc(N)nc21
TGI [6]: > 100 µM

O=C(O)CCC(=O)N1c2ccccc2CC1c1c[nH]c2ccccc12 (configuration not stated)
TGI [2]: > 100 µM | TGI [3]: > 100 µM | TGI [4]: > 100 µM | TGI [5]: > 100 µM | TGI [9]: > 100 µM | TGI [7]: > 100 µM

C=C1C(=O)O[C@@H]2C[C@@H](C)[C@@H]3C=CC(=O)[C@@]3(C)[C@@H](O)[C@H]12
TGI [1]: 1.49 µM | TGI [2]: 3.84 µM | TGI [3]: 4.48 µM | TGI [4]: 1.68 µM | TGI [5]: 20.6 µM | TGI [6]: 5.66 µM

O=C(O)C1=C(O)C(C(=O)O)C23CCCCCCCCCCC12C(C(=O)O)C(O)=C3C(=O)O (configuration not stated)
TGI [1]: > 100 µM | TGI [2]: > 100 µM | TGI [3]: > 100 µM | TGI [4]: > 100 µM | TGI [5]: > 100 µM | TGI [7]: > 100 µM

Cc1c[n+](=O)c2ccccc2n1[O-]
TGI [6]: > 100 µM

O/N=C1/C(=C/c2ccc3c(c2)OCO3)CCCC1C(NO)c1ccc2c(c1)OCO2 (configuration not stated)
TGI [1]: 98.8 µM | TGI [2]: 60.7 µM | TGI [3]: 47.3 µM | TGI [4]: 51.4 µM | TGI [5]: 62 µM | TGI [9]: 87.7 µM | TGI [7]: 62.2 µM

O=C(NCCCCNc1cccccc1=O)OCc1ccccc1
TGI [1]: > 100 µM | TGI [2]: > 100 µM | TGI [3]: > 100 µM | TGI [4]: > 100 µM | TGI [5]: > 100 µM | TGI [8]: > 100 µM | TGI [9]: > 100 µM

COC(=O)NC(=O)c1cn(C2OC(CO)C(O)C2O)c(=O)[nH]c1=O (configuration not stated)
TGI [1]: > 100 µM | TGI [4]: > 100 µM | TGI [5]: > 100 µM | TGI [9]: > 100 µM

CC1(C)O[C@H]2[C@H](O)C[C@](O)(CO)C[C@H]2O1
TGI [1]: > 100 µM | TGI [2]: > 100 µM | TGI [3]: > 100 µM | TGI [4]: > 100 µM | TGI [5]: > 100 µM | TGI [8]: > 100 µM | TGI [9]: > 100 µM

O=C(COc1ccc(Cl)cc1)N1N=C(c2ccc(Cl)cc2)CC1(O)c1ccccc1 (configuration not stated)
TGI [1]: 49.5 µM | TGI [2]: > 100 µM | TGI [3]: 33.1 µM | TGI [4]: > 100 µM | TGI [5]: > 63.4 µM | TGI [9]: > 56.7 µM | TGI [7]: > 100 µM

CCCCCCCCCCCc1nnc(N)o1
TGI [1]: > 100 µM | TGI [3]: > 100 µM | TGI [4]: > 100 µM | TGI [5]: > 100 µM | TGI [8]: > 100 µM | TGI [9]: > 100 µM | TGI [7]: > 100 µM

NC(=O)C(=O)N/N=C1\C(=O)N(c2ccc(Cl)cc2Cl)C(=O)C1C(=O)Nc1ccc(Cl)cc1Cl (configuration not stated)
TGI [1]: > 100 µM | TGI [2]: > 100 µM | TGI [3]: > 100 µM | TGI [4]: > 100 µM | TGI [5]: > 100 µM | TGI [9]: > 100 µM | TGI [7]: > 100 µM

Cc1cc(CC(=O)NCCO)n(CCO)c(=O)c1
TGI [1]: > 100 µM | TGI [2]: > 100 µM | TGI [3]: > 100 µM | TGI [4]: > 100 µM | TGI [5]: > 100 µM | TGI [8]: > 100 µM | TGI [9]: > 100 µM | TGI [7]: > 100 µM

CNC(=O)Nc1nc2ccc([N+](=O)[O-])cc2[nH]1
TGI [6]: > 100 µM

COc1cc(C(O)CCBr)c(OC)cc1C (configuration not stated)
TGI [6]: > 20.9 µM

CCN(CC)c1c(C(=O)/C=C/c2ccc(Cl)cc2)c(-c2ccccc2)nn(C)c1=O
TGI [1]: 3.99 µM | TGI [2]: 3.76 µM | TGI [3]: 3.41 µM | TGI [4]: 3.42 µM | TGI [5]: 3.14 µM | TGI [8]: 3.99 µM | TGI [9]: 5.93 µM

N.N.N.N.N.NC(=O)c1nn[n-]n1.[Cl-].[Co+3]
GI50 [1]: > 100 µM | TGI [1]: > 100 µM | GI50 [3]: > 100 µM | TGI [3]: > 100 µM | GI50 [4]: > 100 µM | TGI [4]: > 100 µM | GI50 [9]: > 100 µM | TGI [9]: > 100 µM

CSC(=Nc1nnc(-c2ccc([N+](=O)[O-])cc2)s1)SC
TGI [1]: > 100 µM | TGI [2]: > 82 µM | TGI [3]: > 100 µM | TGI [4]: > 100 µM | TGI [5]: > 100 µM | TGI [6]: > 100 µM | TGI [9]: 60.9 µM | TGI [7]: 43.3 µM

O=[N+]([O-])c1ccc(C[P+](c2ccccc2)(c2ccccc2)c2ccccc2)cc1
TGI [1]: > 100 µM | TGI [2]: > 100 µM | TGI [3]: > 100 µM | TGI [4]: > 100 µM | TGI [5]: 81.2 µM

CN(/N=C/c1cccc2cccnc12)c1ccc([N+](=O)[O-])cc1[N+](=O)[O-]
TGI [1]: > 100 µM | TGI [2]: > 61.9 µM | TGI [3]: > 55.7 µM | TGI [4]: > 100 µM | TGI [5]: > 100 µM | TGI [6]: > 100 µM | TGI [8]: > 100 µM | TGI [9]: 61.6 µM | TGI [7]: 19.2 µM

O=C1N(C2CCCCC2)CC12CCCCC2
TGI [2]: > 100 µM | TGI [3]: > 100 µM | TGI [5]: > 100 µM | TGI [8]: > 100 µM | TGI [9]: > 100 µM | TGI [7]: > 100 µM

CC1=C(c2ccccc2)C(c2ccccc2)=C(c2ccccc2)C2(c3ccccc3)C(=O)C(C)CN12 (configuration not stated)
TGI [1]: > 100 µM | TGI [3]: > 100 µM | TGI [4]: > 100 µM | TGI [5]: > 100 µM | TGI [7]: 82.8 µM

COC(=O)C1CC23CCCN4CCC5(c6ccccc6N(C=O)C15CC2)C43 (configuration not stated)
TGI [6]: > 100 µM

C[C@]12CC[C@@H]3c4ccc(OC(=O)N(CCCl)CCCl)cc4CC[C@H]3[C@@H]1CC[C@@H]2O
TGI [1]: 1.05 µM | TGI [3]: 24.2 µM | TGI [5]: 0.254 µM | TGI [10]: 0.276 µM | TGI [9]: 17.3 µM

C=C(C)C(O)CCC1(C)C=Cc2c(c(C)cc3c2[nH]c2ccccc23)O1 (configuration not stated)
TGI [1]: 18.8 µM | TGI [2]: 25 µM | TGI [4]: 25 µM | TGI [5]: 25 µM | TGI [6]: 17.3 µM | TGI [9]: 25 µM | TGI [7]: 25 µM

C/C(=N\NC(=S)N1CC2CCC(CC2)C1)c1nccs1
TGI [1]: 17.3 µM | TGI [2]: 0.218 µM | TGI [3]: 4.93 µM | TGI [4]: 15.8 µM | TGI [5]: 1.8 µM | TGI [8]: 17.6 µM | TGI [10]: 15.2 µM | TGI [9]: 41.8 µM | TGI [7]: 13.8 µM

CCOC(=O)C12CCCC1(O)N(NC(=O)OC(C)(C)C)C(C)=C2C(=O)OC (configuration not stated)
TGI [1]: > 100 µM | TGI [2]: > 100 µM | TGI [3]: > 100 µM | TGI [4]: > 100 µM | TGI [5]: > 100 µM | TGI [8]: > 100 µM | TGI [9]: > 100 µM | TGI [7]: > 100 µM

O=C(O)CCN(CCCCN(CCC(=O)O)CCC(=O)O)CCC(=O)O
TGI [1]: > 100 µM | TGI [2]: > 100 µM | TGI [3]: > 100 µM | TGI [4]: > 100 µM | TGI [5]: > 100 µM | TGI [7]: > 100 µM

N.N.N.N.[Co+3].[N-]=[N+]=[N-].[N-]=[N+]=[N-].[N-]=[N+]=[N-]
GI50 [1]: > 100 µM | TGI [1]: > 100 µM | GI50 [3]: > 100 µM | TGI [3]: > 100 µM | GI50 [4]: > 100 µM | TGI [4]: > 100 µM | GI50 [9]: > 100 µM | TGI [9]: > 100 µM

CCc1ccccc1NC(=O)C1=C(C)NC(C)=C(C(=O)Nc2ccccc2CC)C1c1ccccc1Cl
TGI [1]: > 100 µM | TGI [2]: > 100 µM | TGI [4]: > 100 µM | TGI [5]: > 100 µM | TGI [9]: > 100 µM | TGI [7]: > 100 µM

O=C(O)CN(CC(=O)O)Cc1cc(C#Cc2ccc(C#Cc3ccccc3)cc2)cc(CN(CC(=O)O)CC(=O)O)n1
TGI [1]: > 68.1 µM | TGI [2]: 47 µM | TGI [3]: 23.5 µM | TGI [4]: > 76.4 µM | TGI [5]: 39.9 µM | TGI [6]: > 100 µM | TGI [9]: > 100 µM | TGI [7]: > 100 µM
